Measured values: ChEMBL document CHEMBL1201862, “PubChem BioAssay data set” (2004)
Activity calls are given as the source filed them.

Tests used:
[1] = target: DNA (cytosine-5)-methyltransferase 1 (Homo sapiens, UniProt P26358); experiment: DNMT1 methyltransferase inhibitors, confirmation, biochemical, fluorescent molecular beacon (AID 602386); format: functional
[2] = target: T1, Histone-lysine N-methyltransferase NSD2 (Homo sapiens, UniProt O96028); format: biochemical
T1 sequence (O96028 whole entry): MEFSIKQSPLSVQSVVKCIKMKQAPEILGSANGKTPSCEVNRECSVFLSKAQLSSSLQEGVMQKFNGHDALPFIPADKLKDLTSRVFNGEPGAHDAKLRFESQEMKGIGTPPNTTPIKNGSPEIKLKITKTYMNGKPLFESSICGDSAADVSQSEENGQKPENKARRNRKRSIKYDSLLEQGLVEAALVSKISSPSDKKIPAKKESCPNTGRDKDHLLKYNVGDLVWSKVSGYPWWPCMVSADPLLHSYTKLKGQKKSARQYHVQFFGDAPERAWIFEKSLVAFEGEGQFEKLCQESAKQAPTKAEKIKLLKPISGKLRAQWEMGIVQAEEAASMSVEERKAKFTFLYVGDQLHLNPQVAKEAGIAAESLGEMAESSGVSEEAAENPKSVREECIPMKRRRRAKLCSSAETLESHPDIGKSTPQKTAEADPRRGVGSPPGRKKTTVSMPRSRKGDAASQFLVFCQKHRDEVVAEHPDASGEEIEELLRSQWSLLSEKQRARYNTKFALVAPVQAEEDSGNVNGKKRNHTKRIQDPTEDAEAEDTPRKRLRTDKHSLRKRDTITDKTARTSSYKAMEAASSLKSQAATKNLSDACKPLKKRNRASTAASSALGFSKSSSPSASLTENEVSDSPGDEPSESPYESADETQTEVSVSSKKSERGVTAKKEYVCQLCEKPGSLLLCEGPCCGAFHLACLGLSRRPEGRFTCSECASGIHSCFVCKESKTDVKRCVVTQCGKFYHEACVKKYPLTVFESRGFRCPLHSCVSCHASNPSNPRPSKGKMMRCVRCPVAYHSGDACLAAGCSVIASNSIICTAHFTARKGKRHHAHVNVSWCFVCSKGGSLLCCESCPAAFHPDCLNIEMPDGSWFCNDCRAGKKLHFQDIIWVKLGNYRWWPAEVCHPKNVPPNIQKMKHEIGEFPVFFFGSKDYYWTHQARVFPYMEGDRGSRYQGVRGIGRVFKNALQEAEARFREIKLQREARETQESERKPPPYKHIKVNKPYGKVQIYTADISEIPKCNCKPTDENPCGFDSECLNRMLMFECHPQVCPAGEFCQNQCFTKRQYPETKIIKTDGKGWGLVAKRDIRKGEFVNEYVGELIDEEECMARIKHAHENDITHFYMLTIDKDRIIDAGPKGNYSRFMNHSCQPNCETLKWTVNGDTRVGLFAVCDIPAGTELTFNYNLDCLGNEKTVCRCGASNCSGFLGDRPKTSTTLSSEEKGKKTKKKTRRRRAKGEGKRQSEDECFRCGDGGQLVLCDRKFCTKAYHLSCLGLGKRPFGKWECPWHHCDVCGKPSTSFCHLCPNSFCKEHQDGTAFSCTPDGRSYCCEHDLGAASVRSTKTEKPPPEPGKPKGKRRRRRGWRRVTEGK

[3] = target: Multidrug resistance protein CDR2 (Candida albicans (strain SC5314 / ATCC MYA-2876) (Yeast), UniProt P78595); experiment: CaCDR2 efflux pump inhibitors in yeast, dose response, S. cerevisiae AD1-8u, singleplex, Cherry Pick2 set (AID 623994); format: functional; conditions: read-out: EC50_MICROM
[4] = NIH-3T3 fibroblast cytotoxicity, dose response, cytotoxicity control, cell-based, fluorescence, Alamar Blue, secondary assay (AID 2327); format: functional;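 note: NIH-3T3 mouse fibroblasts cultured with fluconazole at 8 µg/mL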
[5] = C. albicans growth with fluconazole, confirmation, fluorescence, retest (AID 2467); format: functional, cell-based
[6] = microbe, parasite or virus in culture; format: functional; conditions: Mycobacterium tuberculosis
[7] = target: T2, Serine/threonine-protein phosphatase (Candida dubliniensis (strain CD36 / CBS 7987 / NCPF 3949 / NRRLY-17841) (Yeast), UniProt B9W6M3); experiment: calcineurin pathway inhibitors in yeast reporter, dose response, S. cerevisiae, CDRE-lacZ, luminescence, secondary (AID 2388); format: functional, cell-based;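 note: yeast reporter cells carrying a calcineurin-responsive lacZ construct stimulated with calcium chloride; luminescent beta-galactosidase reporter signal in whole cells rather than isolated phosphatase activity; potency for inhibition where a drop in reporter signal means calcineurin blockade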
T2 sequence (B9W6M3 whole entry): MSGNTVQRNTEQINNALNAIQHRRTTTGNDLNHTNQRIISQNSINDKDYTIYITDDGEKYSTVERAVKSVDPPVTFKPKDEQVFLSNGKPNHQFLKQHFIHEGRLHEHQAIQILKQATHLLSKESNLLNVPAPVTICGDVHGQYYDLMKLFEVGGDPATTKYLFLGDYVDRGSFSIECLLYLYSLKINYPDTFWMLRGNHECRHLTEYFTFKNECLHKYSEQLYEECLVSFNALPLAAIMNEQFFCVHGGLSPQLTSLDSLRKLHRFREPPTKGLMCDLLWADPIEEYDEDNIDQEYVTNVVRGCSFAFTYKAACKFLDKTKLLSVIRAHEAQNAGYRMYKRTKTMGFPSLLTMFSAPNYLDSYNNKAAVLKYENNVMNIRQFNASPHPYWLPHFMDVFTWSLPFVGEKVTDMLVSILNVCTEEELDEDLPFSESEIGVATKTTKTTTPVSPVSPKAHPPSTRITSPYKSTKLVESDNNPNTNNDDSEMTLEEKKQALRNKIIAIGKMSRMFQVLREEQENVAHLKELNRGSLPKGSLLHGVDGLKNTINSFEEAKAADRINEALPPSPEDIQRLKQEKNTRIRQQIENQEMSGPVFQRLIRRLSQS

[8] = target: T3, Sphingosine 1-phosphate receptor 4 (Homo sapiens, UniProt O95977); experiment: Fluorescence dose response cell-based high throughput screening assay for antagonists of the Sphingosine 1-Phosphate Receptor 4 (S1P4). [Related pubchem assays: 1524 (Confirmation in triplicates.), 1510 (Primary screen.)]; format: functional
T3 sequence (O95977 whole entry): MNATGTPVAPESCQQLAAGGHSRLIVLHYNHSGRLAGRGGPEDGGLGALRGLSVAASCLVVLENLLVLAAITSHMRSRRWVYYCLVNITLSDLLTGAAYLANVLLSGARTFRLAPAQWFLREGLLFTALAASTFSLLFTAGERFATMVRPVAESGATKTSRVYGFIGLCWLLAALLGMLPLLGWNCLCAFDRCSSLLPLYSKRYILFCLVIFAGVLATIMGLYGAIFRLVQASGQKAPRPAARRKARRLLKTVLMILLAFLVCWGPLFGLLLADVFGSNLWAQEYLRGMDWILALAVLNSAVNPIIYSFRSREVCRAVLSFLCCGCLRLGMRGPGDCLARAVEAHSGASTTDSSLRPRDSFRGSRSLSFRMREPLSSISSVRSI

[9] = target: Sphingosine 1-phosphate receptor 1 (Homo sapiens, UniProt P21453); format: functional;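 note: Tango beta-arrestin reporter U2OS cells stimulated with S1P near its EC80; inhibitor potency meaning antagonism of receptor activation by the natural agonist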
[10] = target: Neurotensin receptor type 1 (Homo sapiens, UniProt P30989); format: functional;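 note: Image-based confirmatory dose-response assay measuring agonist activity at NTR1; NTR1-expressing U2OS osteosarcoma cells imaged for beta-arrestin GFP spot formation; agonist potency where compounds increase beta-arrestin recruitment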
[11] = target: Heat shock protein HSP 90-alpha (Homo sapiens, UniProt P07900); format: functional, organism-based
[12] = target: T2, Serine/threonine-protein phosphatase; experiment: Fluorescence Cell-Based Secondary Assay to Identify Inhibitors of Calcineurin. [Related pubchem assays (depositor defined):AID1979, AID2007]; format: functional
[13] = target: ATP-dependent molecular chaperone HSP82 (Candida albicans (strain WO-1) (Yeast), UniProt C4YTQ8); experiment: loss of DOC-induced GRE-beta-galactosidase reporter signal, dose response, Hsp90 inhibitor project, S. cerevisiae, luminescence (AID 2400); format: functional, cell-based;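 note: beta-galactosidase luminescence from glucocorticoid response element reporter as proxy for Hsp90 function; inhibitor potency where signal loss means Hsp90 inhibition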
[14] = Fluorescence-based cell-based high throughput dose response assay for inhibitors of the interaction of nucleotide-binding oligomerization domain containing 2 (NOD2) and the receptor-interacting serine-threonine kinase 2 (RIPK2).; format: functional; conditions: Homo sapiens
[15] = Counterscreen for IDE inhibitors: Luminescence-based cell-based high throughput dose response assay to identify compounds that are cytotoxic to HEK cells. [Related pubchem assays: 434962 (Primary screen (IDE inhibitors in singlicate)), 449730 (Counterscreen (Cytotoxicity in triplicate)), 435028 (Confirmation (IDE inhibitors in triplicate)) …; format: functional; conditions: HEK293
NS3 = NS3 (Hepatitis C virus, UniProt A3EZJ3); experiment: PubChem AID 2173; design: species or system Hepacivirus hominis
Insulin-degrading enzyme = target: T4, Insulin-degrading enzyme (Homo sapiens, UniProt P14735); experiment: Dose Response: Fluorescence polarization-based cell-based high throughput dose response assay for inhibitors of insulin-degrading enzyme (IDE). [Related pubchem assays: 434962 (Primary screen (IDE inhibitors in singlicate)), 449730 (Counterscreen (Cytotoxicity in triplicate)), 435028 (Confirmation (IDE inhibitors in triplicate)), 434984 (Summary …; format: functional
T4 sequence (P14735 whole entry): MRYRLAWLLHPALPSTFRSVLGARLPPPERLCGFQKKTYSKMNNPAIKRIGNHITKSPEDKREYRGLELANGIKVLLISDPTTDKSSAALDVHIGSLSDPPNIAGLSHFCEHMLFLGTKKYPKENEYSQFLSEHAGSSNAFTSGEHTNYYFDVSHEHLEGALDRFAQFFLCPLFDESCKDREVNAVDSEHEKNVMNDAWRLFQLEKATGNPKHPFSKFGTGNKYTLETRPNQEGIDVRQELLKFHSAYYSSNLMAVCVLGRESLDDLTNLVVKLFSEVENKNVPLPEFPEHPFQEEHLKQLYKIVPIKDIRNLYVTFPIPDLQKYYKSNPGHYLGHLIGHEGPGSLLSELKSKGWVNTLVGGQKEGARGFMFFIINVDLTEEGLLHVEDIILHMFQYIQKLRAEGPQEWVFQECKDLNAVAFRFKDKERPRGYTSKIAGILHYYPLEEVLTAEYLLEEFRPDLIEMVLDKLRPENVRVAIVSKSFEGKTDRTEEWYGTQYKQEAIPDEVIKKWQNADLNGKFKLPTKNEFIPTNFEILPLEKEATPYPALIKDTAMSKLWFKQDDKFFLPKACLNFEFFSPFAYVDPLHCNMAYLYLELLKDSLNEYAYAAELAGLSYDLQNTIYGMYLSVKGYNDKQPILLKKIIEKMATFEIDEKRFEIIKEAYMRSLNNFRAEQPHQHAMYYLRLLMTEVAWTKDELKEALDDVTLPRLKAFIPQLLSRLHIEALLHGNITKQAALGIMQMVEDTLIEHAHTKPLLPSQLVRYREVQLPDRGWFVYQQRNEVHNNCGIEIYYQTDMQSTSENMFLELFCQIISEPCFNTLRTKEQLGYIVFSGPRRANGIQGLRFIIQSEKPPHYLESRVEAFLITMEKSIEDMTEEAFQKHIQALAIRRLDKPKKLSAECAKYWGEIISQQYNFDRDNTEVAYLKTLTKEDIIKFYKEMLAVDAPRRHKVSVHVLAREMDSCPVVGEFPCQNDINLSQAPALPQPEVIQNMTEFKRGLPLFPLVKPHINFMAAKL

[16] = Luminescence Cell-Based Dose Retest to Confirm Inhibitors of Cancer Stem Cells. [Related pubchem assays (depositor defined):AID2717, AID2721]; format: functional; conditions: Homo sapiens
[17] = target: T5, Heat shock factor protein 1 (Mus musculus, UniProt P38532); experiment: HSF1 potentiators in luciferase reporter cells, confirmation, cell-based, NIH3T3, luminescence, dose retest (AID 435004); format: functional;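 note: stress induced by proteasome inhibitor MG132 added 30 min after compound; luciferase reporter driven by HSF1 response element in NIH3T3 cells; actives raise luminescence as potentiators of the MG132 stress response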
T5 sequence (P38532 whole entry): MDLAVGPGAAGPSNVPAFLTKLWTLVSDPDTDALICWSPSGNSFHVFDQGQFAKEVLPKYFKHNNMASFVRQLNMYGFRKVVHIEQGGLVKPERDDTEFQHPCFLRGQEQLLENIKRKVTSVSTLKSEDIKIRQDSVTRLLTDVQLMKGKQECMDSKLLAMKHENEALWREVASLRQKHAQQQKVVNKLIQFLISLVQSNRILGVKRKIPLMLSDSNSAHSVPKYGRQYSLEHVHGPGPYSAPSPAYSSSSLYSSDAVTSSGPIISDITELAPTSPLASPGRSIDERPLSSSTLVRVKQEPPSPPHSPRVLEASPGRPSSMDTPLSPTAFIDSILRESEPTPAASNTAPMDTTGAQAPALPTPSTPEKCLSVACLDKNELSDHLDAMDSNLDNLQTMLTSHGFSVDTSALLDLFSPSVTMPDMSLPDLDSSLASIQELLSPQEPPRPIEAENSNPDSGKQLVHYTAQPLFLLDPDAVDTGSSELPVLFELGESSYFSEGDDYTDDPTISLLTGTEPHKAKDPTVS

[18] = target: Hepatocyte nuclear factor 4-alpha (Homo sapiens, UniProt P41235); format: functional, cell-based;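 note: biochemical luminescence-based dose-response counterscreen measuring inhibition of HNF4 dimerization, run alongside a screen for blockers of ABHD5–perilipin-5 interaction; split luciferase complementation of HNF4 fusion proteins in cell lysate measuring dimerization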
[19] = target: T6, Mitochondrial peptide methionine sulfoxide reductase (Bos taurus, UniProt P54149); experiment: Absorbance-based biochemical high throughput dose response assay for activators of Methionine sulfoxide reductase A (MsrA).; format: functional
T6 sequence (P54149 whole entry): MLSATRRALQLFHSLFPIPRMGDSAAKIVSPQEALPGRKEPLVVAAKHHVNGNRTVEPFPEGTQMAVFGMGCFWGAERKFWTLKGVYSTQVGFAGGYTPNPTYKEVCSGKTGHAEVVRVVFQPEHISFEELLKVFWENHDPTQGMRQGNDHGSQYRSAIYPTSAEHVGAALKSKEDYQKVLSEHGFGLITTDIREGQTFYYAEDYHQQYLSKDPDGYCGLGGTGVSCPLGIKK

[20] = miR-122 activators in hepatoma reporter cells, dose response, cell-based, Huh7 psiCHECK-miR122, Renilla luciferase, cherry-picked (AID 651956); format: functional;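 note: huh7 hepatoma cells stably carrying a psiCHECK-2 miR-122 sensor plasmid; renilla luciferase signal reporting endogenous miR-122 activity after 48 h compound exposure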

Chain of Neurotensin receptor type 1 (P30989 whole entry): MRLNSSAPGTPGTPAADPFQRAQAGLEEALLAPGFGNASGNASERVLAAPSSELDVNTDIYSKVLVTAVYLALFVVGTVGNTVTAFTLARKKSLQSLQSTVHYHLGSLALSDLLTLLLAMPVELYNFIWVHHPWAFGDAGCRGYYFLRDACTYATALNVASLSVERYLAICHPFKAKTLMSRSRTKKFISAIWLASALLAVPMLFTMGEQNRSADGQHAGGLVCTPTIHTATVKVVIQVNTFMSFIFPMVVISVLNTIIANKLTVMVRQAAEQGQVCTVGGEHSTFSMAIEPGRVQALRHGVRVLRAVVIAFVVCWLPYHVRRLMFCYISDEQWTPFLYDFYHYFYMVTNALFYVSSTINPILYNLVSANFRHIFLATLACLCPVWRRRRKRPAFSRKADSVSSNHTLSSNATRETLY
Chain of DNA (cytosine-5)-methyltransferase 1 (P26358 whole entry): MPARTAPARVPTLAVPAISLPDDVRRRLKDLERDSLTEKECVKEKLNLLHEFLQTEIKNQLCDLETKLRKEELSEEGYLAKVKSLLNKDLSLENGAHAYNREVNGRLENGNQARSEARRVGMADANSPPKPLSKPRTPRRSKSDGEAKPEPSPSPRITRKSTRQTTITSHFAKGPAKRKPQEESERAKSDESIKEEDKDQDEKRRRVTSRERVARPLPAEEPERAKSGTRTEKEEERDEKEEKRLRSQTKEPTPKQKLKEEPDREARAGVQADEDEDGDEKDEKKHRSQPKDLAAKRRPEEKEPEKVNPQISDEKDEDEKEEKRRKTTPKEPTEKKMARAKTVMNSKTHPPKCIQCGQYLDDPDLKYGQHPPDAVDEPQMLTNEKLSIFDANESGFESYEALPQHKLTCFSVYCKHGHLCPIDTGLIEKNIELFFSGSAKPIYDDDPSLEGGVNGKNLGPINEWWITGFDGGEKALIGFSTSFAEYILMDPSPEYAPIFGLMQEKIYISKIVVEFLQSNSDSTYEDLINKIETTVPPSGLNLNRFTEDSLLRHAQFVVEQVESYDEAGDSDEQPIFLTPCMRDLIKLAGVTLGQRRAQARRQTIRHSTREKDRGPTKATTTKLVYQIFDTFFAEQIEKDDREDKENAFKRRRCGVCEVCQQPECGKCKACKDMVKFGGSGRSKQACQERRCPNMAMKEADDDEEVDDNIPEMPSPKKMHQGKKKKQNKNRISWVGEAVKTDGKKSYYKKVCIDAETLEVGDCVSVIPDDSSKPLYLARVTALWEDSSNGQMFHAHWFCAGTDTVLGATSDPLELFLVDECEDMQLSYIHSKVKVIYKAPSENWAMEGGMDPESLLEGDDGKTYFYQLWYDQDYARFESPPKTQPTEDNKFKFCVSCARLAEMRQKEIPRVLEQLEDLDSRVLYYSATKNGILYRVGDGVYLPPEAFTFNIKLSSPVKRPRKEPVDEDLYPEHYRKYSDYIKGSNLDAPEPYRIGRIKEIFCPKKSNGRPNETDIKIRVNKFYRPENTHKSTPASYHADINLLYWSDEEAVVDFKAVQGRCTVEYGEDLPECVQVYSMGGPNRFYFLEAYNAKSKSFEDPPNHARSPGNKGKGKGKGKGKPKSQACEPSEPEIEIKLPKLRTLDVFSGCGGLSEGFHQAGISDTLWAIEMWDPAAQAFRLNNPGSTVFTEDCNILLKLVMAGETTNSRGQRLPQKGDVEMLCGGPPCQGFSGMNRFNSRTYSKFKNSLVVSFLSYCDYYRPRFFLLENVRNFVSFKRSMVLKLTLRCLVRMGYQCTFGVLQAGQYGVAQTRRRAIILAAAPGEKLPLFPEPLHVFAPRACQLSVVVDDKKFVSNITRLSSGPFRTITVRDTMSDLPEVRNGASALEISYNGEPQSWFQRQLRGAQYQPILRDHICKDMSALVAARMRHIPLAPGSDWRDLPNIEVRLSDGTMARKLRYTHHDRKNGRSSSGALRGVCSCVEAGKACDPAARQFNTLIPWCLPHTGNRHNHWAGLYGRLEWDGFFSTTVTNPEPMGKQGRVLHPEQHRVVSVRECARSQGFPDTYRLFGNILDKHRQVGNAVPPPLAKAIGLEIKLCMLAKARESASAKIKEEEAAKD
Chain of NS3 (A3EZJ3 whole entry): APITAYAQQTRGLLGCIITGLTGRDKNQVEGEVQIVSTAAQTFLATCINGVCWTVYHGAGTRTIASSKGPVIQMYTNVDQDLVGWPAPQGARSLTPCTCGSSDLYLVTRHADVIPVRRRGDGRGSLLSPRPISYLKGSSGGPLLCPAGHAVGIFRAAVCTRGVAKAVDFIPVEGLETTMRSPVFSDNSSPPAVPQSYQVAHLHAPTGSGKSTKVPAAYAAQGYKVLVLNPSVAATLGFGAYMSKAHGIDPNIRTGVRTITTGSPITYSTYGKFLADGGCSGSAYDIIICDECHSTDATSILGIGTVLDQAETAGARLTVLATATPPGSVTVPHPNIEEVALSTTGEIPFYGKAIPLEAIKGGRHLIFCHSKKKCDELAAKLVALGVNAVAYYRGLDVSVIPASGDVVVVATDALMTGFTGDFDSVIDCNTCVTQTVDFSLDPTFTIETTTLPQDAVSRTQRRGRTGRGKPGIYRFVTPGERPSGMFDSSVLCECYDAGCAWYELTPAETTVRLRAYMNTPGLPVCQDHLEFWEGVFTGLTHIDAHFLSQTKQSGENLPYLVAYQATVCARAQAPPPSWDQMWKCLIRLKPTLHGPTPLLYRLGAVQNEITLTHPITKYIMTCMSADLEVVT
Chain of Multidrug resistance protein CDR2 (P78595 whole entry): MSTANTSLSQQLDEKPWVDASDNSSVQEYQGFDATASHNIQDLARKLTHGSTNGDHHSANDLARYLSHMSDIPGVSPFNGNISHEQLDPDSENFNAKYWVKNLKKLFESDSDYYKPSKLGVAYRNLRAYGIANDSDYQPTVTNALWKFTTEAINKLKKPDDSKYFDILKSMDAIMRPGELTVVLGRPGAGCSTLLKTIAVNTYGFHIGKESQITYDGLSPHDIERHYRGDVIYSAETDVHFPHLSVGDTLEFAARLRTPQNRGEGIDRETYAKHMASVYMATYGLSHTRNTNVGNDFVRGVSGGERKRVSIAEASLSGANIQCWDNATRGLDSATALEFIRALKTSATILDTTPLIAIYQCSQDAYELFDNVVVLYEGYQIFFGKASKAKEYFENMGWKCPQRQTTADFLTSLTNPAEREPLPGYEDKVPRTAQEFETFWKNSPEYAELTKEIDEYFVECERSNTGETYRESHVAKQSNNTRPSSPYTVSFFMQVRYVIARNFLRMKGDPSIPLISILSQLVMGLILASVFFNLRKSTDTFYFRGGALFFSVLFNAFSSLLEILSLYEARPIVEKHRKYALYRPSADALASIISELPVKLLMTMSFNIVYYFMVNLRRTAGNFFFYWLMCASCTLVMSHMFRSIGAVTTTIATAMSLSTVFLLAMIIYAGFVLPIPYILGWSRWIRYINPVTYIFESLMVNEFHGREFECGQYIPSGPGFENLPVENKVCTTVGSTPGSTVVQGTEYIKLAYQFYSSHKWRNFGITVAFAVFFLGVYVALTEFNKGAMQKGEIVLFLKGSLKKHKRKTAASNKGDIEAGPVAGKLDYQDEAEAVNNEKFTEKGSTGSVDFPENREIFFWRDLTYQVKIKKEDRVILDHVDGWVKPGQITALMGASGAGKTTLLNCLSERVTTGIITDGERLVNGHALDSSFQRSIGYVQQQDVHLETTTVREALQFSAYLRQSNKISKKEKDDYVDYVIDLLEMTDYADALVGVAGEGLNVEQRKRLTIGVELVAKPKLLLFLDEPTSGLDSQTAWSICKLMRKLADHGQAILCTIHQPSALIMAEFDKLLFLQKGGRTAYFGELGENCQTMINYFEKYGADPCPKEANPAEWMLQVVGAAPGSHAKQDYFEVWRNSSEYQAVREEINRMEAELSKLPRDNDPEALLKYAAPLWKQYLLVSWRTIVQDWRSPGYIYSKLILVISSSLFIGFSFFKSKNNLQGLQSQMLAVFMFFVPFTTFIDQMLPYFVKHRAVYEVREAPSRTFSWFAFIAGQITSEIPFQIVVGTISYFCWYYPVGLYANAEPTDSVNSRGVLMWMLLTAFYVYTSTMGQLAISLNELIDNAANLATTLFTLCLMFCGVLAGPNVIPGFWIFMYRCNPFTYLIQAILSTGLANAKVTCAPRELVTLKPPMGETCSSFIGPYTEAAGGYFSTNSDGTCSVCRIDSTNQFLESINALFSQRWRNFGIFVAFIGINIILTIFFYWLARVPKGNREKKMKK
Chain of Sphingosine 1-phosphate receptor 1 (P21453 whole entry): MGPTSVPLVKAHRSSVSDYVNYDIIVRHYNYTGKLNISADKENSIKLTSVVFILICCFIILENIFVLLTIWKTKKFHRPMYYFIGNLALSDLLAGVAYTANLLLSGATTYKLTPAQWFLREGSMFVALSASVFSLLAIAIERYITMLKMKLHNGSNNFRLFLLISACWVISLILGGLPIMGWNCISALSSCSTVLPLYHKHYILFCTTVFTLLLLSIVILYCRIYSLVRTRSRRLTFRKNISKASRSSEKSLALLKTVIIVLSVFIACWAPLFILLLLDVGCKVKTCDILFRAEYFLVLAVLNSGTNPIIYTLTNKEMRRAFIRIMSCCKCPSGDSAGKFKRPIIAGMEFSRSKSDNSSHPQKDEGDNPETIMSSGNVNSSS
Chain of Hepatocyte nuclear factor 4-alpha (P41235 whole entry, the tested form may be a part): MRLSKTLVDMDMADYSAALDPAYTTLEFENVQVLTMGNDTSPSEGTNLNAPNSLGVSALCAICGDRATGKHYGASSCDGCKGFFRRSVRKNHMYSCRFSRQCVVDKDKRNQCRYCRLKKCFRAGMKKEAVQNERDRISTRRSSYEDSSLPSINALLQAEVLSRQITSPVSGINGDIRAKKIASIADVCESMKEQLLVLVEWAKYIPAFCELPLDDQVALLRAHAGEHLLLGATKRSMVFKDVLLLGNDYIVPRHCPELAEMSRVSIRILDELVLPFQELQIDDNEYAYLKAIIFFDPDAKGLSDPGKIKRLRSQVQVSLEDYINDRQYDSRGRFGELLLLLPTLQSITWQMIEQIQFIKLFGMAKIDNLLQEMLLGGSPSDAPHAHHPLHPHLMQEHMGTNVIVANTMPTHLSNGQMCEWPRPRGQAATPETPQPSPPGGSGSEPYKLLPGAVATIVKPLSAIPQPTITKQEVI

Structure (SMILES): N=C1/C(=C/c2coc3ccccc3c2=O)C(=O)N=C2SC(c3ccco3)=NN12
- IC50 [1]: 11.6 µM (active)
- AC50 [2]: 4.93 µM (active)

Structure (SMILES): O=C(NCCC1=CCCCC1)C1CCC(CNc2[nH]c(=S)nc3ccccc23)CC1 (configuration not stated)
- EC50 [3]: 72.6 µM (active)

Structure (SMILES): CCc1ccc2c(c1)/C(=C/C(=O)c1cccs1)C(=O)N2
- EC50 [4]: > 150 µM (inactive)
- EC50 [5]: 6.49 µM (active)
- CC50 [6]: 7.23 µM (active)
- EC50 [7]: > 180 µM (inactive)
- IC50 [8]: 1.46 µM (active)
- IC50 [9]: 20.9 µM (not active)
- EC50 [10]: 17.7 µM (active)
- AC50 [11]: 4.18 µM (active)
- EC50 [12]: 5.99 µM (active)
- EC50 [13]: 1.25 µM (active)
- IC50 [14]: 4.53 µM (active)

Structure (SMILES): Cc1ccc(C(=O)/C=C/c2cc(Br)cc(Br)c2O)o1
- IC50 [15]: 19.8 µM (not active)
- IC50 (NS3): 9.14 µM (active)
- IC50 (Insulin-degrading enzyme): 21 µM (not active)
- AC50 [16]: 3.09 µM (active)
- EC50 [17]: 16.8 µM (active)
- IC50 [18]: 11 µM (inactive)

Structure (SMILES): O=c1[nH]c(=S)[nH]cc1Oc1ccc(Cl)cc1
- EC50 [19]: > 104 µM (inactive)

Structure (SMILES): CC(C)C#Cc1ccc2c(c1)O[C@H](CN(C)C(=O)c1ccncc1)[C@H](C)CN([C@H](C)CO)S2(=O)=O
- AC50 [20]: 3.04 µM (active)
